From ChEMBL document CHEMBL1133082, “Adenosine kinase inhibitors. 2. Synthesis, enzyme inhibition, and antiseizure activity of diaryltubercidin analogues” (J Med Chem, 2000) come the findings set out here.

Test [1] deals with Rattus norvegicus. As to the kind of experiment: Tested for inhibition of MES-induced seizures in rat after ip administration of 5 mg/kg. The format is functional. The settings on record: route intraperitoneal.
A further test concerns the target Adenosine kinase (Homo sapiens, UniProt P55263). As to the kind of experiment: Inhibition of recombinant human adenosine kinase.
For test [2], the system named is Rattus norvegicus. Description: Intraperitoneal effective dose required for inhibition of MES-induced seizures in rat. The format is functional. The following applies: ip.

Chain of Adenosine kinase (P55263 whole entry): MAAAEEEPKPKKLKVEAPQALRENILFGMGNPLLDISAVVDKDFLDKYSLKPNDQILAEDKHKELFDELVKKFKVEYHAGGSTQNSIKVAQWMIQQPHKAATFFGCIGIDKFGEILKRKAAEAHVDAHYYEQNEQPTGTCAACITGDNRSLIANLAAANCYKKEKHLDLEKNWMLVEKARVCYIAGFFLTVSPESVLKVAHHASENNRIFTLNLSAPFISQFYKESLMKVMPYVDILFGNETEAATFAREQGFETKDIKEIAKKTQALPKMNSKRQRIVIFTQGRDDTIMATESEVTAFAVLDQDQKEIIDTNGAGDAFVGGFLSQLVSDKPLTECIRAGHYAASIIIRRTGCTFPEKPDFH

`C[C@H]1O[C@@H](n2cc(-c3ccccc3)c3c(Nc4ccc(F)cc4)ncnc32)[C@H](O)[C@@H]1O`: in the test with Rattus norvegicus [1], the inhibition in vivo at 5 mg/kg turned out to be 73%.
In the case of `OC[C@H]1O[C@@H](n2cc(-c3ccccc3)c3c(Nc4ccccc4)ncnc32)C[C@@H]1O`, the IC50 on Adenosine kinase is 300 nM.
As for `C[C@H]1O[C@@H](n2cc(I)c3c(NCc4ccccc4)ncnc32)[C@H](O)[C@@H]1O`, the IC50 on Adenosine kinase is 800 nM.
In the case of `C[C@H]1O[C@@H](n2cc(-c3ccccc3)c3c(Nc4ccc(C#N)cc4)ncnc32)[C@H](O)[C@@H]1O`, the IC50 at Adenosine kinase amounted to 14 nM. The same molecule registered an inhibition in vivo at 5 mg/kg in the test on Rattus norvegicus [1] of 87%.
With `OC[C@H]1O[C@@H](n2ccc3c(Nc4ccccc4)ncnc32)[C@H](O)[C@@H]1O`, the IC50 on Adenosine kinase is 1250 nM.
Turning to `C[C@H]1O[C@@H](n2cc(-c3ccccc3)c3c(NCc4ccccc4)ncnc32)[C@H](O)[C@@H]1O`, the IC50 on Adenosine kinase came out at 30 nM.
With `C[C@H]1O[C@@H](n2cc(-c3ccccc3)c3c(Nc4ccc(O)cc4)ncnc32)[C@H](O)[C@@H]1O`, the IC50 at Adenosine kinase was determined as 1 nM. In the test with Rattus norvegicus [2], this molecule had an ED50 of 5.8 mg/kg. Moreover, at 5 mg/kg the inhibition in vivo in the test on Rattus norvegicus [1] was 35%.
For `COc1ccc(Nc2ncnc3c2c(-c2ccccc2)cn3[C@@H]2O[C@H](C)[C@@H](O)[C@H]2O)cc1`, in that order: 6 nM, 1 mg/kg and 93%.
